Drawing on patent EP0312291A2, “Di-or tripeptide renin inhibitors containing lactam conformational restriction in ACHPA” (Merck & Co., Inc., priority 1987, dated 1989), this text covers IC50 for three molecules.

For orientation: IC50 means the concentration that inhibits the measured activity by half. A higher IC50 goes with lower potency.

In this test the target is T1, human plasma renin (Homo sapiens, UniProt P00797).
T1 construct: from tissue; host or cells: human plasma
T1 sequence (P00797 67-406): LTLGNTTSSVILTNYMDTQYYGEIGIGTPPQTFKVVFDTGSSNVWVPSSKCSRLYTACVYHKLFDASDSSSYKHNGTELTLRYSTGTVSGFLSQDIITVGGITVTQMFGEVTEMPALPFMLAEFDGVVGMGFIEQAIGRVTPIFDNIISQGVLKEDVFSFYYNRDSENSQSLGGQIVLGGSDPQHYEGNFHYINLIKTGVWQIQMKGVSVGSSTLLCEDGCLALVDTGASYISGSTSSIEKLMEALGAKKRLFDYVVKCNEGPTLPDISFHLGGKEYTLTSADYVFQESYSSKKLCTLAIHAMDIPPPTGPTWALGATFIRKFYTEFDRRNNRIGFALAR
Briefly: Inhibition of human plasma renin, in vitro method of Boger et al., J. Med. Chem. (1985) 28, 1779. It counts as biochemical. How it is done:
Inhibition of human plasma renin was assayed using the in vitro method described by Boger, et. al., J. Med. Chem. (1985) 28, 1779.
Turning to `CN1CCCC[C@@H]([C@H](O)[C@H](CC2CCCCC2)NC(=O)[C@H](Cc2c[nH]cn2)NC(=O)[C@H](Cc2ccccc2)NC(=O)OC(C)(C)C)C1=O` [Example 3C, Boc-Phe-His-(ACHP)-1-Methylcaprolactam], it took 203 nM to reach half-maximal inhibition (IC50).

On to “Boc-Phe-His-(ACHP)-4-Methyl-3-Morpholinone [Example 3B]”, for which the IC50 was determined as 31 nM.

With `CN1CCC[C@@H]([C@H](O)[C@H](CC2CCCCC2)NC(=O)[C@H](Cc2c[nH]cn2)NC(=O)[C@H](Cc2ccccc2)NC(=O)OC(C)(C)C)C1=O` [Example 3A, Boc-Phe-His-(ACHP)-1-Methyl-2-Piperidinone], it took 47 nM to reach half-maximal inhibition (IC50).
